Laboratory results: publication PMC7144264 (Journal of Enzyme Inhibition and Medicinal Chemistry, 2020)
Entries after “also recorded” stand apart in the source; their conditions may differ. One block for each compound: values may come before it.

Columns and labels:
ovine COX-1 [1] = target: T1, ovine COX-1 (Ovis aries, UniProt P05979); settings: read-out: concentration reducing the rate of cyclooxygenation to about half; COX-1, AA as substrate; cited from earlier work
T1 sequence (P05979 25-600): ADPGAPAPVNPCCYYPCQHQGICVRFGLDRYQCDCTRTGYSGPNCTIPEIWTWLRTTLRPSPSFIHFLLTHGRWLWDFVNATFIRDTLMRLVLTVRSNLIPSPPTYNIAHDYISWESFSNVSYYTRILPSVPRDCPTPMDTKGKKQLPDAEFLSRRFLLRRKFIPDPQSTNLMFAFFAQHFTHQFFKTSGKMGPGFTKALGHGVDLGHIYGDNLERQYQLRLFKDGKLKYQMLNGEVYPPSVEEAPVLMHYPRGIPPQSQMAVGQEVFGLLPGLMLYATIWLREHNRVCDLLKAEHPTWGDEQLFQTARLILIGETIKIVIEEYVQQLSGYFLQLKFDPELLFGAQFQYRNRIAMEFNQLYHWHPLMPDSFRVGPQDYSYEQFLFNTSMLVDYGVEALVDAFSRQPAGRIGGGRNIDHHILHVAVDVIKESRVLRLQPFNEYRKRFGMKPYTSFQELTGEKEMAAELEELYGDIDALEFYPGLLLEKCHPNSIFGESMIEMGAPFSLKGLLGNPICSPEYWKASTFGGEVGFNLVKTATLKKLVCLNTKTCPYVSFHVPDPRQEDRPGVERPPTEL

[2] = mouse; cited from earlier work
human recombinant COX-2 [3] = target: T2, human recombinant COX-2 (Homo sapiens, UniProt P35354); settings: cited from earlier work
T2 sequence (P35354 18-604): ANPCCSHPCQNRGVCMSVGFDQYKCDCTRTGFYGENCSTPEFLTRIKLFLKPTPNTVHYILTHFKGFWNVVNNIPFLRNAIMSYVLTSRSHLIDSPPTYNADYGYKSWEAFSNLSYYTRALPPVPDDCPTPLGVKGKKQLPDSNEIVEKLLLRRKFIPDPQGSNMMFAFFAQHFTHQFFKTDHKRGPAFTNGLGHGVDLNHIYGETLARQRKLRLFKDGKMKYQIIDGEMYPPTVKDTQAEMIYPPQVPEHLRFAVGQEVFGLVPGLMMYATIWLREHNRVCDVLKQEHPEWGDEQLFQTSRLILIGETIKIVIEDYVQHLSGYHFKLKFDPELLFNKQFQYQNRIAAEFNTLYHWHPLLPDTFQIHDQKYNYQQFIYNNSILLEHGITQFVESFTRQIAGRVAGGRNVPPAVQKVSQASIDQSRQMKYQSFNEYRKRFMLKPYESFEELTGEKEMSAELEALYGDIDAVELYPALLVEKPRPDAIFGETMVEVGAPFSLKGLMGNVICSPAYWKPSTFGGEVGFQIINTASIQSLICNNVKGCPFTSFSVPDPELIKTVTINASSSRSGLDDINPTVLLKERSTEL

[4] = in vivo; cited from earlier work
FAAH = tested on: FAAH; design: method as in PMID 25757568; settings: cited from earlier work
[5] = design: method as in PMID 25757568; settings: cited from earlier work
COX-2 = tested on: COX-2; design: method as in PMID 25757568; settings: cited from earlier work
COX-1 = tested on: COX-1; design: method as in PMID 25757568; settings: cited from earlier work
rat brain FAAH [6] = target: T3, rat brain FAAH (Rattus norvegicus, UniProt P97612); experiment: FAAH assay: hydrolysis of [3H]AEA by rat brain homogenates; type: biochemical; settings: for IC50: 0.5 µM [3H]AEA, rat brain homogenates, read-out: IC50 for inhibition of the hydrolysis of [3H]AEA
T3 construct: hydrolysis of 0.5 µM [^3H]AEA by rat brain homogenates; from tissue; host or cells: rat brain (minus cerebella), washed membrane homogenate
T3 sequence (P97612 1-579): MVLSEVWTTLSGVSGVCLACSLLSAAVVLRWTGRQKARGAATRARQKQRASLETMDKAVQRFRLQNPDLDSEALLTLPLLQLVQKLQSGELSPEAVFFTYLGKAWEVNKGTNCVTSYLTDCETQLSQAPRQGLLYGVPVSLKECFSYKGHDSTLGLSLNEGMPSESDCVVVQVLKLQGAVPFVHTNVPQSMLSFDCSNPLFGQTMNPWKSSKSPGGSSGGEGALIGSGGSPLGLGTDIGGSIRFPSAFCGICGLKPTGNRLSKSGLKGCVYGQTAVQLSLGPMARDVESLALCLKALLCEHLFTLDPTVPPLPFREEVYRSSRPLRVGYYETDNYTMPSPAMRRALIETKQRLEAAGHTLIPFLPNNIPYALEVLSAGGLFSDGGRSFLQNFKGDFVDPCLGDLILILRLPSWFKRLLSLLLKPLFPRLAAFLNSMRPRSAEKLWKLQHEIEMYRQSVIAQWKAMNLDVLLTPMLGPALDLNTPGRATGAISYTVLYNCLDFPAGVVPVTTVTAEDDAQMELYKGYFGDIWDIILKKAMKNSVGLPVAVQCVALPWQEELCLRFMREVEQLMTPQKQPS
Method: Frozen (−80 °C) brains (minus cerebella) from adult Wistar or Sprague-Dawley rats were thawed and homogenised in 20 mM HEPES, 1 mM MgCl2, pH 7.0. The homogenates were then centrifuged at ∼35000 x g for 20 min at 4 °C followed by washing (by recentrifugation and by resuspension in the buffer) twice before incubation at 37 °C for 15 min in order to hydrolyse all endogenous FAAH substrates. After a further centrifugation, pellets were resuspended in 50 mM Tris-HCl buffer, pH 7.4, containing 1 mM EDTA and 3 mM MgCl2, and frozen at −80 °C in aliquots until used for the assay. For the FAAH assay, test compounds, homogenates and [^3H]AEA (diluted with non-radioactive AEA to give a substrate concentration of 0.5 μM) in 10 mM Tris- HCl, 1 mM EDTA, pH 7.4, containing 1% w/v fatty acid-free bovine serum albumin were incubated for 10 min at 37 °C. Activated charcoal in 0.5 M HCl was added to adsorb the unmetabolized [^3H]AEA and the samples were mixed and left at r.t. for ∼30 min. Following centrifugation at 2000 g for 10 min, aliquots of the supernatants, containing the [^3H]ethanolamine produced by hydrolysis of [^3H]AEA, were analysed for tritium content by liquid scintillation spectroscopy with quench correction. Blank values were obtained by the use of buffer rather than homogenate.
Data were expressed as % of vehicle (ethanol) control and analysed using the algorithm log(inhibitor) vs. response – variable slope (four parameters) built into the GraphPad Prism computer programme v8.3 for the Macintosh (GraphPad Software Inc., San Diego, CA). The programme reports 95% confidence limits (profile likelihood) for the IC50 values and these presented in the results.

human recombinant COX-2 [7] = target: T2, human recombinant COX-2; experiment: COX-2 assay, oxygen electrode (cyclooxygenation of AA, 2-AG or AEA); type: biochemical; design: purchased Cayman Chemical Co. 60122; settings: for inhibition of AA cyclooxygenation by COX-2: 10 µM AA
Method: (§1) The assay was performed essentially according to the method of Meade et al[21]. An oxygen electrode chamber with integral stirring (Oxygraph System, Hansatech Instruments, King ´s Lynn, U.K.) was calibrated daily to ambient temperature and air pressure. The assay buffer contained 0.1 M Tris-HCl buffer pH 7.4, 1 μM haematin, 2 mM phenol, 5 mM EDTA, 10 μM substrate (AA or 2-AG) in a final assay volume was 2 ml. After addition of test compound, a baseline was established for 5 min before initiation of reaction by addition of 200 units ovine COX-1 or human recombinant COX-2. The change in oxygen consumption as a measurement of enzyme activity was monitored for approximately 5 min.

ovine COX-1 [8] = target: T1, ovine COX-1; experiment: COX-1 assay, oxygen electrode (cyclooxygenation of substrate); type: biochemical; design: purchased Cayman Chemical Co. 60100; settings: 10 µM AA
Method: as §1

rat brain FAAH [9] = target: T3, rat brain FAAH; experiment: FAAH assay: hydrolysis of [3H]AEA by rat brain homogenates; type: biochemical; settings: kinetics of inhibition of rat FAAH, mixed-type model
rat brain FAAH [10] = target: T3, rat brain FAAH; settings: removal of the methyl group at the C-2 carbon atom; cited from earlier work
COX = tested on: COX; design: method as in PMID 28535469; settings: cited from earlier work

Compound: 2–(4-isobutylphenyl)-N-(3-methylpyridin-2-yl)propenamide [Ibu-AM5]
- IC50 (ovine COX-1 [1]): ~50000 nM
- analgesic activity, acetic acid-induced visceral nociception [2]: analgesic activity
- effect upon COX-2 with AA as substrate (human recombinant COX-2 [3]; 100 µM Ibu-AM5): without effect
- IC50 (human recombinant COX-2 [3]; read-out: concentration reducing the rate of cyclooxygenation to about half, COX-2, AEA as substrate): ~3000 nM
- ulcerogenic potency [4]: without appreciable ulcerogenic potency

Compound: CCCCCCNC(=O)Oc1cccc(-c2ccc(C(C)C(=O)O)cc2F)c1 (racemic) [ARN2508, (±)−2-[3-fluoro-4-[3-(hexylcarbamoyloxy)phenyl]phenyl]propanoic acid]
- IC50 (FAAH): 31 nM
- anti-inflammatory effects in vivo [5]: produced anti-inflammatory effects in vivo
- gastric irritation ([5]; in vivo): without causing gastric irritation
- IC50 (COX-2): 420 nM
- IC50 (COX-1): 12 nM

- IC50 (rat brain FAAH [6]): 2000 nM
Compound: Cc1ccccc1NC(=O)C(C)c1ccc(CC(C)C)cc1 (stereo not drawn) [Ibu-AM38, 2–(4-Isobutylphenyl)-N-(o-tolyl)propanamide]

- IC50 (rat brain FAAH [6]): 910 nM
Compound: CC(C)Cc1ccc(C(C)C(=O)Nc2ncccc2Cl)cc1 (stereo not drawn) [Ibu-AM58, N-(3-Chloropyridin-2-yl)-2-(4-isobutylphenyl)propanamide]

- IC50 (rat brain FAAH [6]): 8500 nM
Compound: CC(C)Cc1ccc(C(C)C(=O)Nc2ccccc2O)cc1 (stereo not drawn) [Ibu-AM59, N-(2-Hydroxyphenyl)-2-(4-isobutylphenyl)propanamide]

- IC50 (rat brain FAAH [6]): 360 nM
- melting point: 112 to 114 °C
Compound: CC(C)Cc1ccc(C(C)C(=O)Nc2ncccc2C(F)(F)F)cc1 (stereo not drawn) [Ibu-AM60, 2-(4-Isobutylphenyl)-N-(3-(trifluoromethyl)pyridin-2-yl)propanamide]

- IC50 (rat brain FAAH [6]): 3800 nM
Compound: CC(C)Cc1ccc(C(C)C(=O)Nc2ccc(O)cc2)cc1 (stereo not drawn) [Ibu-AM65, N-(4-Hydroxyphenyl)-2-(4-isobutylphenyl)propanamide]

- IC50 (rat brain FAAH [6]): 350 nM
- melting point: 133 to 135 °C
Compound: Cc1cc(O)ccc1NC(=O)C(C)c1ccc(CC(C)C)cc1 (stereo not drawn) [Ibu-AM66, N-(4-Hydroxy-2-methylphenyl)-2-(4-isobutylphenyl)propanamide]

- IC50 (rat brain FAAH [6]): 7900 nM
- melting point: 100 to 102 °C
Compound: COc1ccc(NC(=O)C(C)c2ccc(CC(C)C)cc2)c(C)c1 (stereo not drawn) [Ibu-AM67, 2-(4-Isobutylphenyl)-N-(4-methoxy-2-methylphenyl)propanamide]

- inhibition of AA cyclooxygenation by COX-2 (human recombinant COX-2 [7]; 10 µM compound): did not inhibit
- inhibition of AA cyclooxygenation by COX-2 (human recombinant COX-2 [7]; 50 and 100 µM compound): did not inhibit
- inhibition of AA cyclooxygenation by COX-1 (ovine COX-1 [8]; 10 µM compound): modest inhibition
- inhibition of AA cyclooxygenation by COX-1 (ovine COX-1 [8]; 50 and 100 µM compound): complete inhibition
- IC50 (rat brain FAAH [6]): 83 nM
- time-dependence of the inhibition (rat brain FAAH [6]; preincubation with homogenates for up to 60 min prior to addition of substrate): no time-dependence of the inhibition
- Ki (rat brain FAAH [9]): 260 nM
- α value (ratio of the Ki intercept: Ki slope values) (rat brain FAAH [9]): 4.9
Compound: CC(C)Cc1ccc(C(C)C(=O)Nc2ncccc2Br)cc1 (stereo not drawn) [Ibu-AM68, N-(3-Bromopyridin-2-yl)−2-(4-isobutylphenyl)propanamide]
- inhibition of 2-AG cyclooxygenation by COX-2 (human recombinant COX-2 [7]; 10 µM compound, 10 µM 2-AG): greatly reduced; also recorded: almost completely inhibited
- mode of inhibition of FAAH (rat brain FAAH [6]; 60 min preincubation, 20-fold dilution, kinetic experiments): reversible, mixed-type mechanism of inhibition; also recorded: reversible mixed inhibitor

- IC50 (rat brain FAAH [6]): 120 nM
Compound: CC(C)Cc1ccc(C(C)C(=O)Nc2ncccc2I)cc1 (stereo not drawn) [Ibu-AM69, N-(3-Iodopyridin-2-yl)-2-(4-isobutylphenyl)propanamide]

- IC50 (rat brain FAAH [6]): 2700 nM
Compound: CC(C)Cc1ccc(C(C)C(=O)Nc2ncccc2O)cc1 (stereo not drawn) [Ibu-AM70, N-(3-Hydroxypyridin-2-yl)-2-(4-isobutylphenyl)propenamide]

- IC50 (rat brain FAAH [6]): 1000 nM
Compound: Cc1cccnc1NC(=O)C(C)(C)c1ccc(CC(C)C)cc1 [Ibu-AM72, 2-(4-Isobutylphenyl)-2-methyl-N-(3-methylpyridin-2-yl)propanamide]

- IC50 (rat brain FAAH [6]): 4100 nM
Compound: Cc1cccnc1NC(=O)C1(c2ccc(CC(C)C)cc2)CC1 [Ibu-AM73]

Compound: Cc1cccnc1NC(=O)Cc1ccc(CC(C)C)cc1 [Ibufenac-AM1]
- reduction of FAAH inhibitory potency relative to Ibu-AM5 (rat brain FAAH [10]): roughly 60 fold

Compound: N-(3-chloropyridin-2-yl)−2–(4-((2-(trifluoromethyl)pyridin-4-yl)amino)phenyl)propenamide [TPA-14]
- COX-inhibitory potency (COX): lacked COX-inhibitory potency
